IC50 and Kd data for six compounds are collected here from patent US20240287138A1, “CYCLIC PEPTIDES FOR INHIBITING TNF RECEPTOR 1 ACTIVITY” (Merck Sharp & Dohme LLC, priority 2023, published 2024).

The target in experiment [1] is T1, human soluble TNFR1 (sTNFR1) (Homo sapiens, UniProt P19438).
T1 construct: made in house; host or cells: Sf21 (baculovirus)
T1 sequence (P19438 with tags, fused parts or gaps): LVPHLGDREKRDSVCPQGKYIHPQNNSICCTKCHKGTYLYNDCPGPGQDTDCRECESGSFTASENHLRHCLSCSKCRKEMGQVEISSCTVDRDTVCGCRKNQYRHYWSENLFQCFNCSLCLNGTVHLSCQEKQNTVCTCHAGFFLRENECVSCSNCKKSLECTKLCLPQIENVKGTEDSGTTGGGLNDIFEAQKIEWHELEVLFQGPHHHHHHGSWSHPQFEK
Description: Human sTNFR1-peptide displacement assay (LanthaScreen Eu TR-FRET binding assay). In outline: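 Readout is the 665/615 nm TR-FRET ratio (Eu anti-His donor, streptavidin-Alexa647 acceptor), normalized to DMSO and saturating displacer, fit by Morrison-based five-parameter logistic for Kd^app. His-tagged sTNFR1 (1-211) prebound to 100 nM biotinylated peptide SEQ ID NO.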

The target in a further experiment is T2, human TNFR2 ECD protein (Homo sapiens, UniProt P20333).
T2 construct: HRV 3C protease cleavage site (C); 6His (C, cleaved yes); made in house; host or cells: Sf21 insect cells (baculovirus), secreted
T2 sequence (P20333 23-257): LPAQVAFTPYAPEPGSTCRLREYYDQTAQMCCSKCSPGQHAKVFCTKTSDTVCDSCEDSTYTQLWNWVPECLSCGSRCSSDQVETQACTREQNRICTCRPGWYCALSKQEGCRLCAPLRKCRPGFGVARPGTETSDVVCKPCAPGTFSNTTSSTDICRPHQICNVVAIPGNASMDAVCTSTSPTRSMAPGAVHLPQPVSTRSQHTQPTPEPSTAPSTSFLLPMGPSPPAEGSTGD
Description: SPR off-target binding (selectivity) to human TNFR2 ECD. A digest of the protocol:
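Read-out: kon, koff and derived affinity from SPR response units. Human TNFR1 and TNFR2 ECD, Avi-tag biotinylated with BirA, captured on a streptavidin surface; peptides injected under laminar flow in HEPES-saline with EDTA, P20 and 2% DMSO.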

Numbered stars: 1 amine (or outer) side, 2 acyl side, 3 side chain; on linkers, the order of the positions; unused ones are H or OH. Bridge positions count the residues as written; N and C are the ends. Square brackets hold non-standard residues; d marks the D form. Peptide text beside a SMILES is read from it. Trp(βS-Me,7-OMe) = COc1cccc2c([C@H](C)[C@H](N)C(=O)O)c[nH]c12; Achc(cis-1,4) = O=C([C@H]1CC[C@@H](N[*:1])CC1)[*:2]; Trp(7-Cl) = N[C@@H](Cc1c[nH]c2c(Cl)cccc12)C(=O)O; X15 = C[C@H](c1ccc(O)cc1)[C@H](N[*:1])C(=O)[*:2]; Phe(4-CONH2) = NC(=O)c1ccc(C[C@H](N)C(=O)O)cc1; Phe(4-COOH) = N[C@@H](Cc1ccc(C(=O)O)cc1)C(=O)O; Trp(7-aza) = N[C@@H](Cc1c[nH]c2ncccc12)C(=O)O; Phe(4-CH2NH2) = NCc1ccc(C[C@H](N)C(=O)O)cc1; Ala(4-thiazolyl) = N[C@@H](Cc1cscn1)C(=O)O; Pip(5R-OH) = O=C(O)[C@@H]1CC[C@@H](O)CN1; X4 = O=C([C@H]1C=C[C@@H](N[*:1])C1)[*:2]; X1 = O=C([C@@H]1CC[C@H](N[*:1])C1)[*:2]; hPhe = N[C@@H](CCc1ccccc1)C(=O)O; 4Pal = N[C@@H](Cc1ccncc1)C(=O)O; NMeE = CN[C@@H](CCC(=O)O)C(=O)O; dHyp = O=C(O)[C@H]1C[C@H](O)CN1; αMeS = C[C@](N)(CO)C(=O)O; NMeA = CN[C@@H](C)C(=O)O; Nle = CCCC[C@H](N)C(=O)O; Sar = CNCC(=O)O Some results are limits rather than exact numbers.

Broadly, the IC50 is the concentration at which inhibition is half-maximal. Read a low IC50 as higher potency. One may read the Kd as the free concentration of one partner at which half of the binding sites on the other are occupied at equilibrium, for simple one-to-one binding. In experiment [1], `CN1CC(=O)N[C@@H](Cc2c[nH]c3ccccc23)C(=O)N[C@H](C(N)=O)CSCC(=O)N[C@@H](CCCCN)C(=O)N[C@@H](Cc2ccc(O)cc2)C(=O)N[C@@H](CO)C(=O)N[C@@H](Cc2c[nH]c3ccccc23)C(=O)N2CCC[C@@H]2C(=O)N[C@@H](CCC(N)=O)C(=O)N[C@@H](Cc2ccncc2)C(=O)N[C@@H](Cc2c[nH]c3ccccc23)C(=O)N[C@@](C)(CO)C(=O)N[C@@H](Cc2ccc(C(=O)O)cc2)C(=O)N[C@@H](Cc2ccc(O)cc2)C1=O` [SEQ ID NO. 242] ({CH2CO}-KYSW[dP]Q[4Pal]W[αMeS][Phe(4-COOH)]Y[Sar]WC-NH2; thioether N-14) displayed an IC50 of 1.21 nM. Also, at human TNFR2 ECD protein, the equilibrium dissociation constant (Kd) is above 1000 nM.
As for `CCCC[C@@H]1NC(=O)CSC[C@@H](C(N)=O)NC(=O)[C@H]([C@@H](C)c2c[nH]c3c(OC)cccc23)NC(=O)CN(C)C(=O)[C@H](Cc2ccc(O)cc2)NC(=O)[C@H](Cc2ccc(C(=O)O)cc2)NC(=O)[C@](C)(CO)NC(=O)[C@H](Cc2c[nH]c3c(Cl)cccc23)NC(=O)[C@H](Cc2ccncc2)NC(=O)[C@H](CC(N)=O)NC(=O)[C@H](CCC(=O)O)N(C)C(=O)[C@H](Cc2c[nH]c3ncccc23)NC(=O)[C@H](CO)NC(=O)[C@H]([C@H](C)c2ccc(O)cc2)NC1=O` [SEQ ID NO. 243] ({CH2CO}-[Nle][X15]S[Trp(7-aza)][NMeE]N[4Pal][Trp(7-Cl)][αMeS][Phe(4-COOH)]Y[Sar][Trp(βS-Me,7-OMe)]C-NH2; thioether N-14), the results for the Kd (in experiment [1]; on human TNFR2 ECD protein) were 0.49 nM and above 1000 nM, respectively.
Regarding `CCCC[C@@H]1NC(=O)[C@H]2CC[C@H](CC2)NC(=O)[C@H]([C@@H](C)c2c[nH]c3c(OC)cccc23)NC(=O)CN(C)C(=O)[C@H](Cc2ccc(O)cc2)NC(=O)[C@H](Cc2ccc(C(=O)O)cc2)NC(=O)[C@](C)(CO)NC(=O)[C@H](Cc2c[nH]c3c(Cl)cccc23)NC(=O)[C@H](Cc2ccncc2)NC(=O)[C@H](CC(N)=O)NC(=O)[C@H](CCC(=O)O)N(C)C(=O)[C@H](Cc2c[nH]c3ccccc23)NC(=O)[C@H](CO)NC(=O)[C@H](Cc2ccc(CN)cc2)NC1=O` [SEQ ID NO. 244] (cyclo([4Pal][Trp(7-Cl)][αMeS][Phe(4-COOH)]Y[Sar][Trp(βS-Me,7-OMe)][Achc(cis-1,4)][Nle][Phe(4-CH2NH2)]SW[NMeE]N)), in experiment [1], the IC50 is 0.49 nM and the equilibrium dissociation constant (Kd) turned out to be 0.96 nM. The compound also had a Kd at human TNFR2 ECD protein above 1000 nM.
On to `CCCC[C@@H]1NC(=O)[C@@H]2CC[C@@H](C2)NC(=O)[C@H]([C@@H](C)c2c[nH]c3c(OC)cccc23)NC(=O)CN(C)C(=O)[C@H](Cc2ccc(C(=O)O)cc2)NC(=O)[C@H](Cc2ccc(C(N)=O)cc2)NC(=O)[C@](C)(CO)NC(=O)[C@H](Cc2c[nH]c3c(Cl)cccc23)NC(=O)[C@H](Cc2ccc(C(=O)O)cc2)NC(=O)[C@H](CC(N)=O)NC(=O)[C@H]2C[C@H](O)CN2C(=O)[C@H](Cc2c[nH]c3ccccc23)NC(=O)[C@@H]2CC[C@@H](O)CN2C(=O)[C@H](Cc2ccncc2)NC1=O` [SEQ ID NO. 247] (cyclo([4Pal][Pip(5R-OH)]W[dHyp]N[Phe(4-COOH)][Trp(7-Cl)][αMeS][Phe(4-CONH2)][Phe(4-COOH)][Sar][Trp(βS-Me,7-OMe)][X1][Nle])), for which the dissociation constant (Kd) in experiment [1] is 0.09 nM; on human TNFR2 ECD protein, above 1000 nM.
As for `C[C@H]1C(=O)N[C@@H](CC(N)=O)C(=O)N[C@@H](Cc2ccncc2)C(=O)N[C@@H](Cc2c[nH]c3ccccc23)C(=O)N[C@@](C)(CO)C(=O)N[C@@H](Cc2ccc(C(=O)O)cc2)C(=O)N[C@@H](Cc2ccc(O)cc2)C(=O)N(C)CC(=O)N[C@@H](Cc2c[nH]c3ccccc23)C(=O)N[C@@H]2C=C[C@@H](C2)C(=O)N[C@@H](CCc2ccccc2)C(=O)N[C@@H](Cc2ccncc2)C(=O)N[C@@H](CO)C(=O)N[C@@H](Cc2c[nH]c3ccccc23)C(=O)N1C` [SEQ ID NO. 248] (cyclo([4Pal]SW[NMeA]N[4Pal]W[αMeS][Phe(4-COOH)]Y[Sar]W[X4][hPhe])), in experiment [1], the IC50 amounted to 1.45 nM and binding was put at a Kd of 1.56 nM. At human TNFR2 ECD protein, this compound returned an equilibrium dissociation constant (Kd) above 1000 nM.
In turn, `CCCC[C@@H]1NC(=O)CSC[C@@H](C(N)=O)NC(=O)[C@H]([C@@H](C)c2c[nH]c3c(OC)cccc23)NC(=O)CN(C)C(=O)[C@H](Cc2ccc(O)cc2)NC(=O)[C@H](Cc2ccc(C(=O)O)cc2)NC(=O)[C@](C)(CO)NC(=O)[C@H](Cc2c[nH]c3c(Cl)cccc23)NC(=O)[C@H](Cc2ccncc2)NC(=O)[C@H](CC(N)=O)NC(=O)[C@H](CCC(=O)O)N(C)C(=O)[C@H](Cc2c[nH]c3ncccc23)NC(=O)[C@H](Cc2cscn2)NC(=O)[C@H](Cc2ccncc2)NC1=O` [SEQ ID NO. 253] ({CH2CO}-[Nle][4Pal][Ala(4-thiazolyl)][Trp(7-aza)][NMeE]N[4Pal][Trp(7-Cl)][αMeS][Phe(4-COOH)]Y[Sar][Trp(βS-Me,7-OMe)]C-NH2; thioether N-14) gave a 50% inhibitory concentration (IC50) in experiment [1] of 0.77 nM. In addition, the Kd in experiment [1] was 1.02 nM; on human TNFR2 ECD protein, above 1000 nM.
